This is an account of results in paper PMC9822769, “The Strange Case: The Unsymmetric Cisplatin-Based Pt(IV) Prodrug [Pt(CH3COO)Cl2(NH3)2(OH)] Exhibits Higher Cytotoxic Activity with respect to Its Symmetric Congeners due to Carrier-Mediated Cellular Uptake” (Bioinorganic Chemistry and Applications, 2022).

Some results are limits rather than exact numbers.

For one data set, the system named is A549. Kind of data set: Resazurin reduction cell viability assay, A549. Type of data set: cell-based, human. The conditions noted are these: 72 h of treatment; mean ± sd. Here is the method: (§1) The compounds under investigation were tested on a panel of commercial human cancer cell lines: ovarian endometrioid adenocarcinoma A2780 (ICLC HTL98008), its cisplatin-resistant variant A2780cisR (ECACC 93112517), colon carcinoma HCT 116 (ECACC 91091005), breast invasive ductal carcinoma MCF7 (ECACC 86012803), embryonal carcinoma NTERA-2 clone D1 (also known as NT2/D1, ICLC HTL97025), and lung adenocarcinoma A549 (ICLC HTL03001). Furthermore, a cell line derived from the pleural effusion of a patient with untreated malignant pleural mesothelioma (MPM) was added to the panel, namely, MM98 (sarcomatoid phenotype). Commercial cells were purchased from the European Collection of Authenticated Cell Cultures (ECACC, UK) or the Interlab Cell Line Collection (ICLC, Genoa, Italy), while the MM98 cell line was obtained from the Pathology Unit of the National Hospital of Alessandria (Italy).
(§2) The following media were used to grow the cells: RPMI 1640 (for A2780, A2780cisR, NT2/D1, and A549 cells), DMEM (for MCF7 cells), DMEM supplemented with nonessential amino acids (for MM98 cells), and McCoy's 5A (for HCT 116 cells). All media contained L-glutamine (2 mM) and were added with penicillin (100 IU·mL^−1), streptomycin (100 mg·L^−1), and 10% heat inactivated FBS. To maintain resistance in A2780cisR cells, cisplatin (1 μM) was added to the medium every two passages.
(§3) Continuous treatments (CT) were carried out at 37°C in a humidified chamber with 5% CO2. Cisplatin was dissolved in a 0.9% w/v NaCl aqueous solution and brought to pH = 3 with HCl (final stock concentration 1 mM). The Pt(IV) Complexes 1–3 were dissolved in milliQ water (final stock concentration 5 mM) and stored at −20°C. The stock concentration was confirmed with inductively coupled plasma-mass spectrometry (ICP-MS) measurements. The mother solutions were diluted in a complete medium to the required concentration.
(§4) To assess the growth inhibition of the compounds under investigation, a cell viability test (i.e., the resazurin reduction assay) was used. […] At the end of the treatment (72 h), viability was evaluated with 100 μg·mL^−1 resazurin (Acros Chemicals, France) in a fresh medium for 1 h at 37°C, and the amount of the reduced product, resorufin, was measured by fluorescence (excitation λ = 535 nm, emission λ = 595 nm) with a Tecan Infinite F200Pro plate reader (Tecan, Austria). In each experiment, cells were challenged with drug candidates at different concentrations, and the final data were calculated from at least three replicates of the same experiment performed in triplicate. The fluorescence of 8 wells containing a medium without cells was used as a blank. Fluorescence data were normalized to 100% cell viability for nontreated cells. […]

For another data set, the system named is MM98. Nature of the data set: Resazurin reduction cell viability assay, MM98. Type of data set: cell-based, human. The conditions noted are these: 72 h of treatment; mean ± sd. Here is the method: as §1, §2, §3, §4
Data set [1] in a line: Immobilized artificial membrane (IAM) chromatography, log KW. The conditions noted are these: IAM column; log k′ extrapolated to fully aqueous mobile phase. Type of data set: physicochemical. Here is the method: (§5) Retention times, tR, were measured on two columns: (i) a standard C18 column (Phenomenex Phenosphere-NEXT, 250 × 4.6 mm, 5 μm) and (ii) an IAM.PC.DD.2 column (Regis, 10 cm × […], 10 μm packing 300 Å pore size), prepared by covalently bonding cell-membrane-forming phospholipids to silica. On (i), a chromatogram was performed for each complex (0.25 mM) in a fixed eluent composition (30% methanol/70% aqueous 15 mM formic acid; flow rate 0.5 mL·min^−1) using a Waters HPLC-MS instrument (equipped with an Alliance 2695 separation module, a 2487 dual lambda absorbance detector, and a 3100 mass detector). The UV-vis detector was set at 210 nm. In (ii), the mobile phase consisted of 20 mM ammonium acetate buffer at pH 6.9 and acetonitrile flowing at 1 mL·min^−1. The samples were dissolved in the mobile phase in a concentration range of 50–100 μg·mL^−1. An HPLC Varian ProStar instrument equipped with a 410 autosampler, a PDA 335 LC detector, and Galaxie Chromatography Data System Version 1.9.302.952 was used.
(§6) The different tRs were used to calculate log k′, which is the logarithm of the retention factor k′ = (tR − t0)/t0, where t0 is the column dead time (i.e., the tR of KCl or citric acid used as the internal reference for (i) and (ii), respectively).
In the case of IAM, the log KW values were calculated by an extrapolation method. Log k′ values were determined at a minimum of three different percentages of acetonitrile (ϕ) in the mobile phases (from 10 to 50%, v/v), and the intercept values of the linear relationships between log k′ and ϕ values were assumed as log KW [65, 66].
Immobilized artificial membrane (IAM) chromatography is a complementary technique for evaluating the interaction of a drug with the cellular membrane. In this technique, the stationary silica phase is covalently bonded to phospholipids, giving a material that is more similar to the cell membrane than the simpler aliphatic chains of the RP-HPLC columns. The log KW values (i.e., log k′ values extrapolated at fully aqueous mobile phase) show the same trend for the three Pt(IV) complexes (log KW = −0.64, −1.06, −0.96, and −0.83 for cisplatin, 1, 2, and 3, respectively) (Table 1).

A further data set has as its system MCF-7. Nature of the data set: Resazurin reduction cell viability assay, MCF-7. Type of data set: cell-based, human. The following applies: 72 h of treatment; mean ± sd. Here is the method:
as §1, §2, §3, §4

Data set [2] in a line: RP-HPLC lipophilicity (log k′) on C18 column. Type of data set: physicochemical. The following applies: 30% methanol/70% aqueous 15 mM formic acid. How it is done:
as §5, §6
The lipophilicity of a compound is commonly described by the octanol-water partition coefficient, log Po/w, which can be defined as the ratio of the concentration of the compound between the organic (n-octanol) and the aqueous phase. However, other faster methods, such as RP-HPLC, have often been used to evaluate lipophilicity instead of the shake-flask method. […] Therefore, the retention times (tR) of the complexes were determined on a C18 column using a 70/30 (% v/v) water/MeOH mixture as an eluent, and the data were expressed as log k′ (k′ = (tR − t0)/t0, where t0 is the column dead time of the column). The trend of the measured log k' was 3 > 2 > cisplatin > 1, as expected based on the structure of the complexes, the acetato ligand being more lipophilic than the hydroxido one (Table 1).

For the molecule `N.N.[Cl][Pt][Cl]` [Cisplatin, (SP-4-2)-diamminedichloridoplatinum(II)], the results for the IC50 with A549, in the data set with MM98 and with MCF-7 were 3.8 ± 0.7 µM, 3.2 ± 1.02 µM and 6.46 ± 0.91 µM, respectively. Moreover, in data set [1], the “Log KW” value is on record as −0.64.
Take `N.N.[OH][Pt]([OH])([Cl])[Cl]` [Complex 1, (OC-6-33)-diamminedichloridodihydroxidoplatinum(IV)]: the “Log k′” value in data set [2] is −1.50. The results for the IC50 in the data set on A549, in the data set with MM98 and in the data set with MCF-7 were 48.2 ± 27.7 µM, more than 100 µM and 78.1 ± 5.6 µM, respectively. Also, the “Log KW” value in data set [1] is −1.06.
The corresponding values for `CC(=O)[O][Pt]([OH])([Cl])[Cl].N.N` [Complex 2, (OC-6-44)-acetatodiamminedichloridohydroxidoplatinum(IV)] are −1.10, 3.11 ± 0.74 µM, 3.67 ± 1.32 µM, 8.86 ± 3.45 µM and −0.96.
For `CC(=O)[O][Pt]([NH2])([NH2])([Cl])([Cl])[O]C(C)=O` [Complex 3, (OC-6-33)-diamminedichloridodiacetatoplatinum(IV)], the “Log k′” value in data set [2] is on record as −0.84. For the same molecule, the IC50 in the data set with A549 was 78 ± 17.7 µM; with MM98, more than 100 µM; in the data set with MCF-7, more than 100 µM. In data set [1], the “Log KW” value is recorded as −0.83.
